Calls of active or inactive are those of the source. The rule behind the calls is not given here. Numbered stars: 1 amine (or outer) side, 2 acyl side, 3 side chain; on linkers, the order of the positions; unused ones are H or OH. Bridge positions count the residues as written; N and C are the ends. Square brackets hold non-standard residues; d marks the D form. Peptide text beside a SMILES is read from it. * marks the point of attachment. hTyr(3S-OH,4S-OH,3'-OSO3H) = N[C@H](C(=O)O)[C@H](O)[C@@H](O)c1ccc(O)c(OS(=O)(=O)O)c1; pTerphenylCO(4''-OnC5H11) = CCCCCOc1ccc(-c2ccc(-c3ccc(C(=O)*)cc3)cc2)cc1; Orn(4R-OH,5R-OH) = O=C([C@H](C[C@@H](O)[C@@H](O)N[*:3])N[*:1])[*:2]; hTyr(3S-OH,4S-OH) = N[C@H](C(=O)O)[C@H](O)[C@@H](O)c1ccc(O)cc1; Pro(3S-OH,4S-Me) = C[C@H]1CN[C@H](C(=O)O)[C@H]1O; X1 = CCCCCOc1ccc(-c2cc(-c3ccc(C(=O)*)cc3)no2)cc1; Gln(3R-OH) = NC(=O)C[C@@H](O)[C@H](N)C(=O)O; Hyp = O=C(O)[C@@H]1C[C@@H](O)CN1
Experiments:
Candida orthopsilosis [1] = experiment: Antifungal activity against Candida orthopsilosis clinical isolate bloodstream form assessed as induction of miniparadoxical effect at 16 mg/L after 48 hrs by time-kill assay; format: functional, organism-based
Candida metapsilosis [2] = experiment: Antifungal activity against Candida metapsilosis clinical isolate bloodstream form assessed as minimum concentration required for => 3-log decrease in fungal growth after 12 to 48 hrs by time-kill assay; format: functional
Candida orthopsilosis [3] = experiment: Antifungal activity against Candida orthopsilosis clinical isolate bloodstream form assessed as minimum concentration required for => 3-log decrease in fungal growth after 12 to 48 hrs by time-kill assay; format: functional
Candida parapsilosis [4] = experiment: Antifungal activity against Candida parapsilosis clinical isolate bloodstream form assessed as induction of miniparadoxical effect at 16 mg/L after 48 hrs by time-kill assay; format: functional, organism-based
Candida metapsilosis [5] = experiment: Antifungal activity against Candida metapsilosis clinical isolate bloodstream form assessed as induction of miniparadoxical effect at 16 mg/L after 48 hrs by time-kill assay; format: functional, organism-based
Candida metapsilosis [6] = experiment: Antifungal activity against Candida metapsilosis clinical isolate bloodstream form assessed as induction of maximal fungal death at 32 mg/L after 48 hrs by time-kill assay; format: functional, organism-based
Candida parapsilosis [7] = experiment: Antifungal activity against Candida parapsilosis clinical isolate bloodstream form assessed as induction of miniparadoxical effect at 32 mg/L after 48 hrs by time-kill assay; format: functional, organism-based

SMILES: CC[C@H](C)C[C@H](C)CCCCCCCCC(=O)N[C@H]1C[C@@H](O)[C@@H](NCCN)NC(=O)[C@@H]2[C@@H](O)CCN2C(=O)[C@H]([C@H](O)CCN)NC(=O)[C@H]([C@H](O)[C@@H](O)c2ccc(O)cc2)NC(=O)[C@@H]2C[C@@H](O)CN2C(=O)[C@H]([C@@H](C)O)NC1=O [CASPOFUNGIN]
- Activity (Candida orthopsilosis [1]): Active
- MED (Candida metapsilosis [2]): 14 mg/L
- MED (Candida orthopsilosis [3]): 14 mg/L
- Activity (Candida parapsilosis [4]): Active
- Activity (Candida metapsilosis [5]): Active

SMILES: CCCCCOc1ccc(-c2cc(-c3ccc(C(=O)N[C@H]4C[C@@H](O)[C@@H](O)NC(=O)[C@@H]5[C@@H](O)[C@@H](C)CN5C(=O)[C@H]([C@H](O)CC(N)=O)NC(=O)[C@H]([C@H](O)[C@@H](O)c5ccc(O)c(OS(=O)(=O)O)c5)NC(=O)[C@@H]5C[C@@H](O)CN5C(=O)[C@H]([C@@H](C)O)NC4=O)cc3)no2)cc1 [MICAFUNGIN] (X1-[Orn(4R-OH,5R-OH)]T[Hyp][hTyr(3S-OH,4S-OH,3'-OSO3H)][Gln(3R-OH)][Pro(3S-OH,4S-Me)]; lactam 1-C)
- Activity (Candida metapsilosis [6]): Active

SMILES: CCCCCOc1ccc(-c2ccc(-c3ccc(C(=O)N[C@H]4C[C@@H](O)[C@@H](O)NC(=O)[C@@H]5[C@@H](O)[C@@H](C)CN5C(=O)[C@H]([C@@H](C)O)NC(=O)[C@H]([C@H](O)[C@@H](O)c5ccc(O)cc5)NC(=O)[C@@H]5C[C@@H](O)CN5C(=O)[C@H]([C@@H](C)O)NC4=O)cc3)cc2)cc1 [ANIDULAFUNGIN] ({pTerphenylCO(4''-OnC5H11)}-[Orn(4R-OH,5R-OH)]T[Hyp][hTyr(3S-OH,4S-OH)]T[Pro(3S-OH,4S-Me)]; lactam 1-C)
- Activity (Candida parapsilosis [7]): Active

Reference: ChEMBL document CHEMBL1255421, “In vitro fungicidal activities of echinocandins against Candida metapsilosis, C. orthopsilosis, and C. parapsilosis evaluated by time-kill studies” (2010)
